Reference: US10023570B2 (Array BioPharma, Inc., priority 2015, dated 2018)
Where a name gives a salt, the structure may show the parent alone.

These compounds were tested against human KDR protein in HEK-293 cells (Homo sapiens (Human), UniProt P35968) (assay: KDR Cell Assay (phospho-KDR in HEK-293 cells expressing inducible KDR)). Details: pKDR Cell HEK 10% FBS IC50, HEK-293 cells expressing inducible KDR, VEGF stimulated.
human KDR protein in HEK-293 cells, sequence (P35968 20-1356): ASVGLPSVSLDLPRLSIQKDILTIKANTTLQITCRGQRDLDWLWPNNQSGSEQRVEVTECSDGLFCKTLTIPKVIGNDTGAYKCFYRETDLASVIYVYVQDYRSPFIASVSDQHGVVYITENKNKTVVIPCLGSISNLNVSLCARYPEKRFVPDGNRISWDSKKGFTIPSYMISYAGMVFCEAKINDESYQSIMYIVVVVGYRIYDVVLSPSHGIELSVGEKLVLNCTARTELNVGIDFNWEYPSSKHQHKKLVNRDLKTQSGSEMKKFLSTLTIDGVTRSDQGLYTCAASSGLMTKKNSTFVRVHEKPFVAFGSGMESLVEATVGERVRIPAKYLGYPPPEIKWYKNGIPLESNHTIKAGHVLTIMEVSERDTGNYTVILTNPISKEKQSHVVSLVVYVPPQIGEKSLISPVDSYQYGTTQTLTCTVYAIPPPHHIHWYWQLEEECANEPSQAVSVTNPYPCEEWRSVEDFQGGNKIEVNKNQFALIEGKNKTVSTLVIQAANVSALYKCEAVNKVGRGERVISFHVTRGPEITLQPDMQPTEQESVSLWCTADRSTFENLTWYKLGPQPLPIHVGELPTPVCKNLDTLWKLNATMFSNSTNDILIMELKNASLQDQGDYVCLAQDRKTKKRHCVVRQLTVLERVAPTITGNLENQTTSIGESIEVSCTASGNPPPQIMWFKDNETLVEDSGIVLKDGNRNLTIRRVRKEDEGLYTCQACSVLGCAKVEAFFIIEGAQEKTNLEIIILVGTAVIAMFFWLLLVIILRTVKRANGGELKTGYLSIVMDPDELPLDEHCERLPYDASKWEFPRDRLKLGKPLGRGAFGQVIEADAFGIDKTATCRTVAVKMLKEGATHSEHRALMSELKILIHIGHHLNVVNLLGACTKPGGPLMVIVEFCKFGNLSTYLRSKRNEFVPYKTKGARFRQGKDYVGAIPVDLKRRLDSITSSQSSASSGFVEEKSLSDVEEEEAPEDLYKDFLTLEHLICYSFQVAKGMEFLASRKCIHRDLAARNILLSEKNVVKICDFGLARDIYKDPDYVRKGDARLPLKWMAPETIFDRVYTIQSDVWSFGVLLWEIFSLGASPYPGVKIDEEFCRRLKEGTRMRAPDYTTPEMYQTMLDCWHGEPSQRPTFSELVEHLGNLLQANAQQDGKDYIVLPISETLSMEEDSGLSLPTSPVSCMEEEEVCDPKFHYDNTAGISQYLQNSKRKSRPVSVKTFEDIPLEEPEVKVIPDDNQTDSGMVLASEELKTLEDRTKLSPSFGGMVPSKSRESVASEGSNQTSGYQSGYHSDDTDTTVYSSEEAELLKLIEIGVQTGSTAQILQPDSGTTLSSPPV
Format: cell-based
In short: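 HEK-293 cells with inducible human KDR were treated with compound for 1 h in DMEM (0.25% DMSO final), then lysed. Phospho-KDR was quantified by Meso Scale immunoassay, expressed as percent of control, and IC50 taken where a 4-parameter logistic fit crossed 50 POC.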
`CN1CCC2(CCCN(c3ccc(-c4cc(-c5cnn(C)c5)cn5ncc(C#N)c45)cn3)C2)CC1` [Example 555, 6-(1-methyl-1H-pyrazol-4-yl)-4-(6-(9-methyl-2,9-diazaspiro[5.5]undecan-2-yl)pyridin-3-yl)pyrazolo[1,5-a]pyridine-3-carbonitrile] was tested, and the IC50 was 1.03 µM. Work on `CN1CCCC2(CCN(c3ccc(-c4cc(-c5cnn(C)c5)cn5ncc(C#N)c45)cn3)CC2)C1` [Example 556, 6-(1-methyl-1H-pyrazol-4-yl)-4-(6-(2-methyl-2,9-diazaspiro[5.5]undecan-9-yl)pyridin-3-yl)pyrazolo[1,5-a]pyridine-3-carbonitrile] yielded an IC50 of 1.9 µM. In the case of `Cn1cc(-c2cc(-c3ccc(N4CC5CCC(C4)N5Cc4ccccc4)nc3)c3c(C#N)cnn3c2)cn1` [Example 484, 4-(6-(8-benzyl-3,8-diazabicyclo[3.2.1]octan-3-yl)pyridin-3-yl)-6-(1-methyl-1H-pyrazol-4-yl)pyrazolo[1,5-a]pyridine-3-carbonitrile], the IC50 is reported as 0.209 µM. `CO[C@H]1CCN(C(=O)N2CCN(c3ccc(-c4cc(-c5cnn(C)c5)cn5ncc(Cl)c45)cn3)CC2)C1` [Example 645, (S)-(4-(5-(3-chloro-6-(1-methyl-1H-pyrazol-4-yl)pyrazolo[1,5-a]pyridin-4-yl)pyridin-2-yl)piperazin-1-yl)(3-methoxypyrrolidin-1-yl)methanone] was tested, and the IC50 was 1.68 µM. `Cn1cc(-c2cc(-c3ccc(N4CCC(c5ccccc5)C4)nc3)c3c(C#N)cnn3c2)cn1` (stereo not shown) [Example 533, 6-(1-methyl-1H-pyrazol-4-yl)-4-(6-(3-phenylpyrrolidin-1-yl)pyridin-3-yl)pyrazolo[1,5-a]pyridine-3-carbonitrile 2,2,2-trifluoroacetate] showed an IC50 of 4.86 µM. `CC(C)C1CCN(C(=O)N2CCN(c3ccc(-c4cc(-c5cnn(C)c5)cn5ncc(C#N)c45)cn3)CC2)C1` (stereo not shown) [Example 390, 4-(6-(4-(3-isopropylpyrrolidine-1-carbonyl)piperazin-1-yl)pyridin-3-yl)-6-(1-methyl-1H-pyrazol-4-yl)pyrazolo[1,5-a]pyridine-3-carbonitrile] gave an IC50 of 0.951 µM. `COc1cncc(CN2CCN(c3ccc(-c4cc(-c5cnn(C)c5)cn5ncc(C#N)c45)cn3)CC2)c1` [Example 442, 4-(6-(4-((5-methoxypyridin-3-yl)methyl)piperazin-1-yl)pyridine-3-yl)-6-(1-methyl-1H-pyrazol-4-yl)pyrazolo[1,5-a]pyridine-3-carbonitrile] showed an IC50 of 1.67 µM. `Cn1cc(-c2cc(-c3ccc(N4CCC5(CCOC5)C4)nc3)c3c(C#N)cnn3c2)cn1` (stereo not shown) [Example 530, 4-(6-(2-oxa-7-azaspiro[4.4]nonan-7-yl)pyridin-3-yl)-6-(1-methyl-1H-pyrazol-4-yl)pyrazolo[1,5-a]pyridine-3-carbonitrile 2,2,2-trifluoroacetate] was tested, and the IC50 was 1.54 µM. With `Cn1cc(-c2cc(-c3ccc(N4CCN(Cc5ccccc5Cl)CC4)nc3)c3c(C#N)cnn3c2)cn1` [Example 454, 4-(6-(4-(2-chlorobenzyl)piperazin-1-yl)pyridin-3-yl)-6-(1-methyl-1H-pyrazol-4-yl)pyrazolo[1,5-a]pyridine-3-carbonitrile] the IC50 was 0.698 µM. Compound `Cn1cc(CN2CCN(c3ccc(-c4cc(-c5cnn(C)c5)cn5ncc(C#N)c45)cn3)CC2)cn1` [Example 448, 6-(1-methyl-1H-pyrazol-4-yl)-4-(6-(4-((1-methyl-1H-pyrazol-4-yl)methyl)piperazin-1-yl)pyridin-3-yl)pyrazolo[1,5-a]pyridine-3-carbonitrile] has an IC50 of 1.72 µM. `Cn1cc(-c2cc(-c3ccc(N4CCCC5(CCCN5)C4)nc3)c3c(C#N)cnn3c2)cn1` (stereo not shown) [Example 542, 4-(6-(1,7-diazaspiro[4.5]decan-7-yl)pyridin-3-yl)-6-(1-methyl-1H-pyrazol-4-yl)pyrazolo[1,5-a]pyridine-3-carbonitrile dihydrochloride] was tested, and the IC50 was 0.222 µM.

Same assay, conditions: pKDR Cell HEK 10% FBS IC50, HEK-293 cells expressing inducible KDR, VEGF stimulated, 10% FBS
In the case of `Cn1cc(-c2cc(-c3ccc(N4CCN(C(=O)C5(c6ccc(F)cc6)CC5)CC4)nc3)c3c(C#N)cnn3c2)cn1` [Example 345, 4-(6-(4-(1-(4-fluorophenyl)cyclopropanecarbonyl)piperazin-1-yl)pyridin-3-yl)-6-(1-methyl-1H-pyrazol-4-yl)pyrazolo[1,5-a]pyridine-3-carbonitrile], the IC50 is reported as 0.305 µM. `Cn1cc(-c2cc(-c3ccc(N4CCN(C(=O)C(c5ccccc5)N5CCOCC5)CC4)nc3)c3c(C#N)cnn3c2)cn1` (stereo not shown) [Example 363, 6-(1-methyl-1H-pyrazol-4-yl)-4-(6-(4-(2-morpholino-2-phenylacetyl)piperazin-1-yl)pyridin-3-yl)pyrazolo[1,5-a]pyridine-3-carbonitrile bis(2,2,2-trifluoroacetate)] was tested, and the IC50 was 2.64 µM. With `Cn1cc(-c2cc(-c3ccc(N4CCN(C(=O)[C@H](O)c5cccc(Cl)c5)CC4)nc3)c3ccnn3c2)cn1` [Example 322, (R)-2-(3-chlorophenyl)-2-hydroxy-1-(4-(5-(6-(1-methyl-1H-pyrazol-4-yl)pyrazolo[1,5-a]pyridin-4-yl)pyridin-2-yl)piperazin-1-yl)ethanone] the IC50 was 4.86 µM. `Cn1cc(-c2cc(-c3ccc(N4CCN(C(=O)N5CCCC(F)C5)CC4)nc3)c3c(C#N)cnn3c2)cn1` (stereo not shown) [Example 116, 4-(6-(4-(3-fluoropiperidine-1-carbonyl)piperazin-1-yl)pyridin-3-yl)-6-(1-methyl-1H-pyrazol-4-yl)pyrazolo[1,5-a]pyridine-3-carbonitrile] gave an IC50 of 2.27 µM. In the case of `Cn1cc(-c2cc(-c3ccc(N4CCC5(CC4)CN(C(=O)Cc4ccccc4)C5)nc3)c3c(C#N)cnn3c2)cn1` [Example 218, 6-(1-methyl-1H-pyrazol-4-yl)-4-(6-(2-(2-phenylacetyl)-2,7-diazaspiro[3.5]nonan-7-yl)pyridin-3-yl)pyrazolo[1,5-a]pyridine-3-carbonitrile], the IC50 is reported as 4.79 µM. `CO[C@@H](C(=O)N1CCN(c2ccc(-c3cc(-c4cnn(C)c4)cn4ncc(C#N)c34)cn2)CC1)c1ccccc1` [Example 83] was tested, and the IC50 was 0.135 µM. `Cn1ccc(-c2cc(-c3ccc(N4CCN(C(=O)CC(C)(C)C)CC4)cc3)c3c(C#N)cnn3c2)n1` [Example 309, 4-(4-(4-(3,3-dimethylbutanoyl)piperazin-1-yl)phenyl)-6-(1-methyl-1H-pyrazol-3-yl)pyrazolo[1,5-a]pyridine-3-carbonitrile] was tested, and the IC50 was 4.78 µM. For `Cn1cc(-c2cc(-c3ccc(N4CCN(C(=O)N5CCC[C@H]5C#N)CC4)nc3)c3c(C#N)cnn3c2)cn1` [Example 112, (S)-4-(6-(4-(2-cyanopyrrolidine-1-carbonyl)piperazin-1-yl)pyridin-3-yl)-6-(1-methyl-1H-pyrazol-4-yl)pyrazolo[1,5-a]pyridine-3-carbonitrile], the IC50 was 0.869 µM. `Cn1cc(-c2cc(-c3ccc(N4CCN(C(=O)N5CCCC(F)(F)C5)CC4)nc3)c3c(C#N)cnn3c2)cn1` [Example 94, 4-(6-(4-(3,3-difluoropiperidine-1-carbonyl)piperazin-1-yl)pyridin-3-yl)-6-(1-methyl-1H-pyrazol-4-yl)pyrazolo[1,5-a]pyridine-3-carbonitrile] was tested, and the IC50 was 1.7 µM. In the case of `Cn1cc(-c2cc(-c3ccc(N4CCC(C(=O)NC5CC(F)(F)C5)CC4)nc3)c3c(C#N)cnn3c2)cn1` [Example 238, 1-(5-(3-cyano-6-(1-methyl-1H-pyrazol-4-yl)pyrazolo[1,5-a]pyridin-4-yl)pyridin-2-yl)-N-(3,3-difluorocyclobutyl) piperidine-4-carboxamide], the IC50 is reported as 0.42 µM. Compound `Cn1cc(-c2cc(-c3ccc(N4CCC(N5CC[C@H](O)C5=O)CC4)nc3)c3c(C#N)cnn3c2)cn1` [Example 190, (S)-4-(6-(4-(3-hydroxy-2-oxopyrrolidin-1-yl)piperidin-1-yl)pyridin-3-yl)-6-(1-methyl-1H-pyrazol-4-yl)pyrazolo[1,5-a]pyridine-3-carbonitrile] has an IC50 of 0.277 µM. `CN(C)C(=O)N1CCN(c2ccc(-c3cc(-c4cnn(C)c4)cn4ncc(C#N)c34)cn2)CC1` [Example 132, 4-(5-(3-cyano-6-(1-methyl-1H-pyrazol-4-yl)pyrazolo[1,5-a]pyridin-4-yl)pyridin-2-yl)-N,N-dimethylpiperazine-1-carboxamide] was tested, and the IC50 was 1.15 µM. `Cn1cc(-c2cc(-c3ccc(N4CC[C@H](C(=O)NCCC(F)(F)F)C4)nc3)c3c(C#N)cnn3c2)cn1` [Example 262, (S)-1-(5-(3-cyano-6-(1-methyl-1H-pyrazol-4-yl)pyrazolo[1,5-a]pyridin-4-yl)pyridin-2-yl)-N-(3,3,3-trifluoropropyl)pyrrolidine-3-carboxamide] showed an IC50 of 0.617 µM. `Cn1cc(-c2cc(-c3ccc(N4CCN(C(=O)[C@@H](N)c5ccccc5)CC4)nc3)c3c(C#N)cnn3c2)cn1` [Example 50, (S)-4-(6-(4-(2-amino-2-phenylacetyl)piperazin-1-yl)pyridin-3-yl)-6-(1-methyl-1H-pyrazol-4-yl)pyrazolo[1,5-a]pyridine-3-carbonitrile bis(2,2,2-trifluoroacetate)] gave an IC50 of 1.19 µM. `Cn1cnc(C(=O)N2CCN(c3ccc(-c4cc(-c5cnn(C)c5)cn5ncc(C#N)c45)cn3)CC2)c1` [Example 36, 4-(6-(4-(1-methyl-1H-imidazole-4-carbonyl)piperazin-1-yl)pyridin-3-yl)-6-(1-methyl-1H-pyrazol-4-yl)pyrazolo[1,5-a]pyridine-3-carbonitrile bis(2,2,2-trifluoroacetate)] showed an IC50 of 0.212 µM. `CO[C@@H]1CCN(C(=O)N2CCN(c3ccc(-c4cc(-c5cnn(C)c5)cn5ncc(C#N)c45)cn3)CC2)C1` [Example 104, (R)-4-(6-(4-(3-methoxypyrrolidine-1-carbonyl)piperazin-1-yl)pyridin-3-yl)-6-(1-methyl-a]pyridine-3-carbonitrile 1H-pyrazol-4-yl)pyrazolo[1,5-] gave an IC50 of 0.637 µM. `Cn1cc(-c2cc(-c3ccc(N4CCN(C(=O)C5CCCC5)CC4)nc3)c3c(C#N)cnn3c2)cn1` [Example 21, 4-(6-(4-(cyclopentanecarbonyl)piperazin-1-yl)pyridin-3-yl)-6-(1-methyl-1H-pyrazol-4-yl)pyrazolo[1,5-a]pyridine-3-carbonitrile] gave an IC50 of 0.54 µM.
